From the NIST ThermoML archive (doi:10.1021/je7000667)
Numbers after ± are expanded uncertainties.

Test: xn = mol fraction of the nth substance listed
Conditions: Gas, Burnett expansion method

FC(C(F)(F)F)C(F)(F)F [1,1,1,2,3,3,3-heptafluoropropane] + FCF
Conditions | mass density [kg/m3]
360 K, 221.36 kPa, x2 = 0.5155 | 8.234 ± 0.009
360 K, 239.67 kPa, x2 = 0.2648 | 11.408 ± 0.012
360 K, 243.21 kPa, x2 = 0.7809 | 6.433 ± 0.007
360 K, 303.15 kPa, x2 = 0.5155 | 11.36 ± 0.01
360 K, 327.36 kPa, x2 = 0.2648 | 15.74 ± 0.014
360 K, 333.32 kPa, x2 = 0.7809 | 8.875 ± 0.008
360 K, 414 kPa, x2 = 0.5155 | 15.673 ± 0.012
360 K, 445.38 kPa, x2 = 0.2648 | 21.715 ± 0.016
360 K, 455.62 kPa, x2 = 0.7809 | 12.244 ± 0.01
360 K, 563.21 kPa, x2 = 0.5155 | 21.622 ± 0.015
360 K, 602.72 kPa, x2 = 0.2648 | 29.96 ± 0.02
360 K, 620.87 kPa, x2 = 0.7809 | 16.892 ± 0.012
360 K, 761.94 kPa, x2 = 0.5155 | 29.83 ± 0.019
360 K, 809.48 kPa, x2 = 0.2648 | 41.334 ± 0.026
360 K, 842.09 kPa, x2 = 0.7809 | 23.305 ± 0.016
360 K, 1023.1 kPa, x2 = 0.5155 | 41.153 ± 0.025
360 K, 1075.4 kPa, x2 = 0.2648 | 57.027 ± 0.034
360 K, 1134.1 kPa, x2 = 0.7809 | 32.152 ± 0.021
360 K, 1359.1 kPa, x2 = 0.5155 | 56.775 ± 0.034
360 K, 1407.1 kPa, x2 = 0.2648 | 78.678 ± 0.047
360 K, 1513.7 kPa, x2 = 0.7809 | 44.316 ± 0.028
360 K, 1778.5 kPa, x2 = 0.5155 | 78.326 ± 0.047
360 K, 1801.2 kPa, x2 = 0.2648 | 108.549 ± 0.066
360 K, 1995.5 kPa, x2 = 0.7809 | 61.139 ± 0.038
360 K, 2234.4 kPa, x2 = 0.2648 | 149.76 ± 0.096
360 K, 2279 kPa, x2 = 0.5155 | 108.059 ± 0.067
360 K, 2584.7 kPa, x2 = 0.7809 | 84.349 ± 0.058
360 K, 2647.8 kPa, x2 = 0.2648 | 206.618 ± 0.12
360 K, 2834.8 kPa, x2 = 0.5155 | 149.078 ± 0.097
370 K, 180 kPa, x2 = 0.2648 | 8.265 ± 0.011
370 K, 227.73 kPa, x2 = 0.5155 | 8.23 ± 0.009
370 K, 246.7 kPa, x2 = 0.2648 | 11.403 ± 0.012
370 K, 250.16 kPa, x2 = 0.7809 | 6.429 ± 0.007
370 K, 312.04 kPa, x2 = 0.5155 | 11.355 ± 0.01
370 K, 337.19 kPa, x2 = 0.2648 | 15.732 ± 0.013
370 K, 343.02 kPa, x2 = 0.7809 | 8.87 ± 0.008
370 K, 426.48 kPa, x2 = 0.5155 | 15.665 ± 0.012
370 K, 459.23 kPa, x2 = 0.2648 | 21.704 ± 0.016
370 K, 469.2 kPa, x2 = 0.7809 | 12.238 ± 0.01
370 K, 580.8 kPa, x2 = 0.5155 | 21.611 ± 0.015
370 K, 622.4 kPa, x2 = 0.2648 | 29.945 ± 0.02
370 K, 639.98 kPa, x2 = 0.7809 | 16.884 ± 0.012
370 K, 786.9 kPa, x2 = 0.5155 | 29.815 ± 0.019
370 K, 837.7 kPa, x2 = 0.2648 | 41.314 ± 0.026
370 K, 869.16 kPa, x2 = 0.7809 | 23.293 ± 0.015
370 K, 1058.9 kPa, x2 = 0.5155 | 41.133 ± 0.025
370 K, 1116.3 kPa, x2 = 0.2648 | 56.999 ± 0.034
370 K, 1172.8 kPa, x2 = 0.7809 | 32.136 ± 0.021
370 K, 1411 kPa, x2 = 0.5155 | 56.746 ± 0.034
370 K, 1467.3 kPa, x2 = 0.2648 | 78.639 ± 0.046
370 K, 1569.4 kPa, x2 = 0.7809 | 44.294 ± 0.028
370 K, 1854.7 kPa, x2 = 0.5155 | 78.287 ± 0.046
370 K, 1891.2 kPa, x2 = 0.2648 | 108.495 ± 0.063
370 K, 2076.9 kPa, x2 = 0.7809 | 61.109 ± 0.038
370 K, 2371.1 kPa, x2 = 0.2648 | 149.686 ± 0.087
370 K, 2392.6 kPa, x2 = 0.5155 | 108.005 ± 0.064
370 K, 2705.2 kPa, x2 = 0.7809 | 84.308 ± 0.057
370 K, 2859.2 kPa, x2 = 0.2648 | 206.516 ± 0.12
370 K, 3006.5 kPa, x2 = 0.5155 | 149.004 ± 0.086
390 K, 190.02 kPa, x2 = 0.2648 | 8.257 ± 0.01
390 K, 240.4 kPa, x2 = 0.5155 | 8.222 ± 0.009
390 K, 260.65 kPa, x2 = 0.2648 | 11.392 ± 0.011
390 K, 264.02 kPa, x2 = 0.7809 | 6.423 ± 0.007
390 K, 329.74 kPa, x2 = 0.5155 | 11.344 ± 0.01
390 K, 356.74 kPa, x2 = 0.2648 | 15.716 ± 0.013
390 K, 362.31 kPa, x2 = 0.7809 | 8.862 ± 0.008
390 K, 451.27 kPa, x2 = 0.5155 | 15.65 ± 0.012
390 K, 486.71 kPa, x2 = 0.2648 | 21.683 ± 0.016
390 K, 496.17 kPa, x2 = 0.7809 | 12.226 ± 0.009
390 K, 615.63 kPa, x2 = 0.5155 | 21.59 ± 0.015
390 K, 661.34 kPa, x2 = 0.2648 | 29.916 ± 0.02
390 K, 677.89 kPa, x2 = 0.7809 | 16.867 ± 0.012
390 K, 836.32 kPa, x2 = 0.5155 | 29.786 ± 0.019
390 K, 893.34 kPa, x2 = 0.2648 | 41.274 ± 0.025
390 K, 922.76 kPa, x2 = 0.7809 | 23.271 ± 0.015
390 K, 1129.5 kPa, x2 = 0.5155 | 41.093 ± 0.025
390 K, 1196.7 kPa, x2 = 0.2648 | 56.943 ± 0.034
390 K, 1249.8 kPa, x2 = 0.7809 | 32.105 ± 0.02
390 K, 1513 kPa, x2 = 0.5155 | 56.692 ± 0.034
390 K, 1584.8 kPa, x2 = 0.2648 | 78.563 ± 0.046
390 K, 1679.1 kPa, x2 = 0.7809 | 44.251 ± 0.027
390 K, 2003.7 kPa, x2 = 0.5155 | 78.212 ± 0.047
390 K, 2065.6 kPa, x2 = 0.2648 | 108.39 ± 0.064
390 K, 2236.4 kPa, x2 = 0.7809 | 61.05 ± 0.038
390 K, 2613.6 kPa, x2 = 0.5155 | 107.901 ± 0.064
390 K, 2634 kPa, x2 = 0.2648 | 149.541 ± 0.091
390 K, 2940 kPa, x2 = 0.7809 | 84.226 ± 0.052
390 K, 3260.4 kPa, x2 = 0.2648 | 206.316 ± 0.12
390 K, 3338.4 kPa, x2 = 0.5155 | 148.86 ± 0.088
410 K, 105.73 kPa, x2 = 0.2648 | 4.333 ± 0.009
410 K, 106.47 kPa, x2 = 0.7809 | 2.443 ± 0.005
410 K, 133.75 kPa, x2 = 0.5155 | 4.316 ± 0.007
410 K, 145.48 kPa, x2 = 0.2648 | 5.979 ± 0.009
410 K, 146.65 kPa, x2 = 0.7809 | 3.371 ± 0.005
410 K, 184.04 kPa, x2 = 0.5155 | 5.954 ± 0.008
410 K, 199.99 kPa, x2 = 0.2648 | 8.248 ± 0.01
410 K, 201.86 kPa, x2 = 0.7809 | 4.651 ± 0.006
410 K, 253.05 kPa, x2 = 0.5155 | 8.214 ± 0.008
410 K, 274.54 kPa, x2 = 0.2648 | 11.38 ± 0.011
410 K, 277.79 kPa, x2 = 0.7809 | 6.417 ± 0.006
410 K, 347.32 kPa, x2 = 0.5155 | 11.332 ± 0.01
410 K, 376.14 kPa, x2 = 0.2648 | 15.701 ± 0.013
410 K, 381.49 kPa, x2 = 0.7809 | 8.853 ± 0.008
410 K, 475.89 kPa, x2 = 0.5155 | 15.634 ± 0.012
410 K, 513.94 kPa, x2 = 0.2648 | 21.661 ± 0.015
410 K, 522.95 kPa, x2 = 0.7809 | 12.214 ± 0.009
410 K, 650.2 kPa, x2 = 0.5155 | 21.568 ± 0.014
410 K, 699.84 kPa, x2 = 0.2648 | 29.885 ± 0.019
410 K, 715.45 kPa, x2 = 0.7809 | 16.85 ± 0.012
410 K, 885.1 kPa, x2 = 0.5155 | 29.756 ± 0.019
410 K, 948.18 kPa, x2 = 0.2648 | 41.232 ± 0.025
410 K, 975.71 kPa, x2 = 0.7809 | 23.247 ± 0.015
410 K, 1199.1 kPa, x2 = 0.5155 | 41.051 ± 0.025
410 K, 1275.5 kPa, x2 = 0.2648 | 56.886 ± 0.033
410 K, 1325.1 kPa, x2 = 0.7809 | 32.073 ± 0.02
410 K, 1613 kPa, x2 = 0.5155 | 56.634 ± 0.033
410 K, 1699.6 kPa, x2 = 0.2648 | 78.483 ± 0.045
410 K, 1786.7 kPa, x2 = 0.7809 | 44.206 ± 0.027
410 K, 2149.2 kPa, x2 = 0.5155 | 78.132 ± 0.045
410 K, 2235 kPa, x2 = 0.2648 | 108.28 ± 0.061
410 K, 2392.4 kPa, x2 = 0.7809 | 60.988 ± 0.037
410 K, 2828 kPa, x2 = 0.5155 | 107.791 ± 0.062
410 K, 2887.1 kPa, x2 = 0.2648 | 149.389 ± 0.085
410 K, 3168.3 kPa, x2 = 0.7809 | 84.141 ± 0.051
410 K, 3641.6 kPa, x2 = 0.2648 | 206.107 ± 0.12
410 K, 3658.2 kPa, x2 = 0.5155 | 148.709 ± 0.087
